The NIST ThermoML archive (doi:10.1016/j.jct.2004.09.021)
± gives the expanded uncertainty stated by the source.

Assays:
[1] = 101 kPa, Liquid
[2] = refractive index (Na D-line) (dimensionless); settings: 101.33 kPa, Liquid
[3] = xn = mol fraction of the nth substance listed; settings: 101 kPa, Liquid, x2 = 0
[4] = refractive index (Na D-line) (dimensionless); xn = mol fraction of the nth substance listed; settings: 101 kPa, Liquid, x2 = 0

SMILES	mass density ([1]; 293.15 K) [kg/m3]	viscosity ([1]; 293.15 K) [mPa·s]	mass density ([1]; 298.15 K) [kg/m3]	viscosity ([1]; 298.15 K) [mPa·s]	mass density ([1]; 303.15 K) [kg/m3]	viscosity ([1]; 303.15 K) [mPa·s]	refractive index ([2]; 293.15 K)	refractive index ([2]; 298.15 K)	refractive index ([2]; 303.15 K)	mass density ([3]; 293.15 K) [kg/m3]	viscosity ([3]; 293.15 K) [mPa·s]	mass density ([3]; 298.15 K) [kg/m3]	viscosity ([3]; 298.15 K) [mPa·s]	mass density ([3]; 303.15 K) [kg/m3]	viscosity ([3]; 303.15 K) [mPa·s]	refractive index ([4]; 293.15 K)	refractive index ([4]; 298.15 K)	refractive index ([4]; 303.15 K)
CCCCCCC [heptane]	683.96 ± 0.87	0.4127 ± 0.0081	679.77 ± 0.88	0.3909 ± 0.0078	675.5 ± 0.88	0.3702 ± 0.0075	1.3872 ± 0.0009	1.3855 ± 0.0009	1.3827 ± 0.001	–	–	–	–	–	–	–	–	–
CCCCCCC [heptane] + COc1ccccc1	–	–	–	–	–	–	–	–	–	683.96 ± 0.87	0.4127 ± 0.0081	679.77 ± 0.88	0.3909 ± 0.0078	675.5 ± 0.88	0.3702 ± 0.0075	1.3872 ± 0.0009	1.3855 ± 0.0009	1.3827 ± 0.001
CCCCCC [hexane]	659.5 ± 0.91	0.3114 ± 0.0066	654.96 ± 0.92	0.2974 ± 0.0064	650.42 ± 0.93	0.2838 ± 0.0062	1.3759 ± 0.001	1.3732 ± 0.001	1.3709 ± 0.0009	–	–	–	–	–	–	–	–	–
CCCCCC [hexane] + COc1ccccc1	–	–	–	–	–	–	–	–	–	659.5 ± 0.91	0.3114 ± 0.0066	654.96 ± 0.92	0.2974 ± 0.0064	650.42 ± 0.93	0.2838 ± 0.0062	1.3759 ± 0.001	1.3732 ± 0.001	1.3709 ± 0.0009
CCCCCCCC [octane]	702.61 ± 0.84	0.5464 ± 0.01	698.57 ± 0.85	0.5123 ± 0.0096	694.56 ± 0.85	0.483 ± 0.0091	1.3965 ± 0.0009	1.3947 ± 0.0009	1.3926 ± 0.0009	–	–	–	–	–	–	–	–	–
CCCCCCCC [octane] + COc1ccccc1	–	–	–	–	–	–	–	–	–	702.61 ± 0.84	0.5464 ± 0.01	698.57 ± 0.85	0.5123 ± 0.0096	694.56 ± 0.85	0.483 ± 0.0091	1.3965 ± 0.0009	1.3947 ± 0.0009	1.3926 ± 0.0009

More lines, now with the values ahead:

mass density ([1]; 293.15 K) [kg/m3]	viscosity ([1]; 293.15 K) [mPa·s]	mass density ([1]; 298.15 K) [kg/m3]	viscosity ([1]; 298.15 K) [mPa·s]	mass density ([1]; 303.15 K) [kg/m3]	viscosity ([1]; 303.15 K) [mPa·s]	refractive index ([2]; 293.15 K)	refractive index ([2]; 298.15 K)	refractive index ([2]; 303.15 K)	mass density ([3]; 293.15 K) [kg/m3]	viscosity ([3]; 293.15 K) [mPa·s]	mass density ([3]; 298.15 K) [kg/m3]	viscosity ([3]; 298.15 K) [mPa·s]	mass density ([3]; 303.15 K) [kg/m3]	viscosity ([3]; 303.15 K) [mPa·s]	refractive index ([4]; 293.15 K)	refractive index ([4]; 298.15 K)	refractive index ([4]; 303.15 K)	SMILES
729.91 ± 0.8	0.9169 ± 0.016	726.16 ± 0.8	0.8512 ± 0.015	722.36 ± 0.81	0.7898 ± 0.014	1.4148 ± 0.001	1.4118 ± 0.001	1.4089 ± 0.001	–	–	–	–	–	–	–	–	–	CCCCCCCCCC [decane]
–	–	–	–	–	–	–	–	–	729.91 ± 0.8	0.9169 ± 0.016	726.16 ± 0.8	0.8512 ± 0.015	722.36 ± 0.81	0.7898 ± 0.014	1.4148 ± 0.001	1.4118 ± 0.001	1.4089 ± 0.001	CCCCCCCCCC [decane] + COc1ccccc1
748.78 ± 0.77	1.487 ± 0.024	745.14 ± 0.77	1.373 ± 0.023	741.52 ± 0.78	1.25 ± 0.021	1.421 ± 0.0011	1.4172 ± 0.0011	1.4135 ± 0.0011	–	–	–	–	–	–	–	–	–	CCCCCCCCCCCC [dodecane]
–	–	–	–	–	–	–	–	–	748.78 ± 0.77	1.487 ± 0.024	745.14 ± 0.77	1.373 ± 0.023	741.52 ± 0.78	1.25 ± 0.021	1.421 ± 0.0011	1.4172 ± 0.0011	1.4135 ± 0.0011	CCCCCCCCCCCC [dodecane] + COc1ccccc1
717.59 ± 2.9	0.7136 ± 0.013	713.71 ± 3	0.6715 ± 0.012	709.81 ± 3	0.6307 ± 0.011	1.404 ± 0.0009	1.4027 ± 0.0009	1.4002 ± 0.001	–	–	–	–	–	–	–	–	–	CCCCCCCCC [nonane]
–	–	–	–	–	–	–	–	–	717.59 ± 2.9	0.7136 ± 0.013	713.71 ± 3	0.6715 ± 0.012	709.81 ± 3	0.6307 ± 0.011	1.404 ± 0.0009	1.4027 ± 0.0009	1.4002 ± 0.001	CCCCCCCCC [nonane] + COc1ccccc1
